Measured values from patent US20250326725A1, “PI4-Kinase Inhibitors and Methods of Using the Same” (The Board of Trustees of the Leland Stanford Junior …, priority 2019, published 2025).
“And” between values parts separate entries of the source, which are not always exact repeats. Equal entries are not always repeated.

Columns and labels:
[1] = Cell toxicity (CC50) in BK virus assay
[2] = test system: BK virus (Polyomaviridae); experiment: BK virus antiviral assay (EC50); format: cell-based; details: Betapolyomavirus hominis
PI4KIIIbeta = molecular target: T1, PI4KIIIbeta (Bos taurus, UniProt O02810); experiment: PI-kinase assay, PI4KIIIbeta (Table 4); format: biochemical, bovine
T1 construct: made in house; host or cells: COS-7 cells, transient transfection, anti-HA immunoprecipitate on protein G Sepharose beads
Procedure: (§1) PI-kinase assay: Compounds are tested in C.1.1. PT kinase assays as described by Shokat et al., “A membrane capture assay for lipid kinase activity.” Nat. Protoc. 2007; 2(10):2459-66.
(§2) General methods of materials: In the assays described here, p110α-p85 complex and p110γ were acquired from Millipore. Assays were performed with La-phosphatidylinositol (Avanti) as described in Knight et al. Nat Protoc. 2007; 2 (10):2459-66. Inhibitor series were prepared 10% DMSO as 5× stocks for the assay. Assays of HsVps34 were performed as described in Knight et al, except that the final assay buffer composition used was changed to 20 mM HEPES 7.5, 100 mM NaCl, 3 mM MgCl, 1 mg/mL PI and 44 nM hvps34 was used in the assay. […] COS-7 cells were cultured in 10 cm dishes and transfected at 70% confluence with 10 μg of plasmid DNA (HA-tagged bovine PI4KIIIβ. HA-tagged human PI4KIIIα) using Lipofectamine 2000 and 5 ml Opti-MEM following the manufacturer's instructions. After 5 hours the transfection medium was replaced with 10 ml complete DMEM. 36 hrs post transfection, cells were washed once with 5 ml PBS (pH 7.4) and lysed in 1 ml of lysis buffer (1) on ice. Lysates were collected by scraping and after 15 min they were centrifuged at 13.000 rpm for 10 min. To the lysates was added 200 gi of protein G Sepharose 4 fast flow beads that were prewashed with PBS and lysis buffer and 2 sg of anti-HA antibody. The tubes were then incubated overnight at 4 degrees C. in a tube rotator. The Sepharose beads in the lysate were washed twice with 150 mM NaCl in RIPA buffer, twice with RIPA buffer and once with kinase buffer (50 mM Tris/HCl, pH 7.5, 20 mM MgCl2, 1 mM EFTA, 1 mM PtdIns, 0.4% Triton X-100, 0.5 mg/mL BSA) and finally the beads were resuspended in 200 μL kinase buffer. Kinase reactions were run in a mixture of 45 μL of PI buffer (1 mM P1 in kinase buffer), 10 μL of immunoprecipitated beads, 2 µL of inhibitors (dissolved and diluted in DMSO) or DMSO and 5 μL of [γ-^32P]-ATP (1 mM and 2 μCi/tube). The immunoprecipitates in PI buffer were pre-incubated with the drugs for 20 min prior the initiation of kinase reaction by adding ATP and the reactions were carried out for 30 min in 15 ml polyproplyene tubes. Reactions were terminated by addition of 3 ml of CHCl3:CH3OH:HCl (200:100:0.75) followed by 0.6 ml of 0.61N HCl to induce phase separation. The mixtures were vortexed, centrifuged at 2000 rpm for 2 min and the upper phase was discarded. To the lower phase was added 1.5 ml of CHCl3:CH3OH:0.6N HCl (3:48:47) and the mixture vortexed and centrifuged at 2000 rpm for 2 ruin. The lower phase was then transferred to counting vials and evaporated. Samples were counted in a scintillation beta counter after adding 5 ml of Instafluor (Perkin-Elmer).
(§3) Selected compounds of Tables 1-3 were prepared and tested for inhibition activity in a variety of kinase assays.

PI4KIIIalpha = molecular target: T2, PI4KIIIalpha (Homo sapiens, UniProt P42356); experiment: PI-kinase assay, PI4KIIIalpha (Table 4); format: biochemical
T2 construct: made in house; host or cells: COS-7 cells, transient transfection, anti-HA immunoprecipitate on protein G Sepharose beads
Procedure: as §1, §2, §3

[3] = Cell toxicity (CC50) in JC virus assay
[4] = test system: JC virus (Polyomaviridae); experiment: JC virus antiviral assay (EC50); format: cell-based; details: JC polyomavirus
lung cancer cell lines [5] = experiment: Cell proliferation in monolayer culture (WST-1); format: cell-based, human; details: panel of lung cancer cell lines
Procedure: (§4) Human lung cancer cells (A549, H1299, H460, H23, H2122, and H3122) were cultured in RPMI 1640 containing 10% FBS. Cells were maintained at 37° C. in an incubator with a humidified atmosphere containing 5% CO2.
(§5) To assess the anti-cancer activity of exemplary PI4K antagonists, a panel of lung cancer cell lines annotated for the presence or absence of PI4K amplifications were treated with PI4K inhibitors (IN-9, TN-10, or compound B) that have greater than 1000-fold selectivity […] PI4KIIIβ over class I and class III PI3K family members. […] IC50 values were even lower with the presence of PI4K amplifications.
(§6) PI4KIIIβ is a target in human cancers, including lung adenocarcinoma. (FIG. 1A). PI4P concentrations in H2122 cells (dots) treated in triplicate (dots) with Compound B or vehicle dimethyl sulfoxide (DMS). (FIG. 1B) Relative densities of PI4-kinase-amplified (red) and -diploid (black) human lung adenocarcinoma cell lines determined by WST-1 assays after 5 days of Compound B treatment. Results expressed relative to the lowest dose, which was set at 100%. (FIG. 1B, right panel) Half maximal inhibitory (IC50) concentrations of compound B determined from FIG. 1B, left panel. (FIG. 1C) Migrated and invaded 1-23 human lung adenocarcinoma cells in Transwell chambers were photographed (images) and counted (bar graphs) after treatment with compound B. Results expressed relative to DMSO-treated cells, which were set at 1.0. (FIG. 1C, right panel). Colonies formed by H2122 human lung cancer cells in soft agarose (FIG. 1D) and on plastic (FIG. 1E) were photographed (images) and counted (bar graphs) after 7 days of treatment with the indicated doses of compound B or vehicle DMSO (0 M). Results expressed relative to DMSO control, which were set at 1.0. PI4-kinase inhibition leads to selective cytotoxicity for cancer cells (FIG. 1F).

lung cancer cell lines [6] = experiment: Colony formation in soft agar and on plastic; format: cell-based, human; details: panel of lung cancer cell lines
Procedure: as §4, §5, §6

lung cancer cell lines [7] = experiment: Migration and invasion in Boyden chambers; format: cell-based, human; details: panel of lung cancer cell lines
Procedure: as §4, §5, §6

lung cancer cell lines [8] = experiment: PI4P levels in lung cancer cell lines; format: cell-based, human; details: panel of lung cancer cell lines
Procedure: as §4, §5, §6

[9] = test system: Human HPV (Papillomaviridae); experiment: Human HPV antiviral assay (EC50); format: cell-based, human papilloma virus; details: Human papillomavirus, read-out: Human HPV (Papillomaviridae) EC50
HCV = experiment: Anti-HCV assay (EC50); format: cell-based; details: Hepatitis C virus, read-out: HCV EC50
Procedure: Anti-HCV assay: Anti-HCV assays are performed as described by Cho et al. “Identification of a class of HCV inhibitors directed against the nonstructural protein NS4B.” Sci. Transl. Med. 2011; 2(15):15ra6.

[10] = Cell toxicity (CC50) in EV68 assay; details: EV68 CC50
cells (EV68 assay) = experiment: Cell toxicity (CC50) in EV68 assay
[11] = Cell toxicity (CC50) in EV71 assay; details: EV71 CC50
cells (EV71 assay) = experiment: Cell toxicity (CC50) in EV71 assay
[12] = Cell toxicity (CC50) in HRV assay; details: human, HRV CC50
HeLa S3 cells = experiment: Cell toxicity (CC50) in HRV assay; details: human
[13] = Microsomal stability, human liver microsomes; format: in vitro ADME; details: for half-life: read-out: HLM/MLM (t ½ min): HLM
EV71 = EV71 antiviral assay (EC50); format: cell-based, Enterovirus 71; details: Enterovirus A, EV71
EV68 = EV68 antiviral assay (EC50); format: cell-based
[14] = Microsomal stability, mouse liver microsomes; format: in vitro ADME
[15] = Cell toxicity (CC50) in HPV assay
HRV = experiment: Rhinovirus antiviral assay (EC50); format: cell-based; details: Human rhinovirus sp.
[16] = Caco-2 permeability assay; format: in vitro ADME; details: human, read-out: Caco2 Papp × 1e−6 cm/s
Procedure: Compounds of interest were tested in a variety of cell-based assays for antiviral activity.

EV-71 virus = experiment: Survival of AG129 mice challenged with EV-71; format: in vivo; details: EV-71 10^6.5 CCID50/mouse i.p., treated b.i.d. for five days per os starting four hours post-infection
Procedure: FIG. 4 illustrates the survival of four-week-old AG129 mice challenged with EV-71 virus and treated with exemplary Compound B. Groups of eight AG129 nice were challenged with EV-71 at 10^6.5 CCID50/mouse via the i.p. route. Mice were treated b.i.d. for five days per os with doses of Compound B as shown, starting four hours post-infection. Placebo-treated mice received a vehicle control on the same schedule. Mice treated with IVIg, as a positive control, received a single administration of 100 mg/kg via the i.p. route four hours post-infection. […] (*P<0.05, **P<0.01).

[17] = test system: H2122 human orthotopic lung tumors; experiment: H2122 human orthotopic lung tumors in nu/nu mice; format: in vivo; details: 20 or 40 mg/kg plus 20 mg/kg ritonavir, subcutaneously twice daily for three weeks
Procedure: Mice received standard care and were euthanized according to the standards set forth by the Institutional Animal Care and Use Committee. To generate orthotopic lung tumors using human lung adenocarcinoma cell lines, nu/nu mice (n=10 mice per cohort) were subjected to intrathoracic injection with 10^6 human tumor cells, necropsied after a week or more of treatment, and primary tumor size and the number of metastases on the contralateral lung surface measured. […] Drugs were administered subcutaneously twice daily for three weeks. On the last day of treatment, mice were subjected to micro-computed tomography to measure primary tumor size. The following day, mice were necropsied to measure primary tumor size, count metastases to the contralateral lung, and obtain lung tissues for analysis. […] Drugs were administered intraperitoneally twice daily for 8 days. On the last day of treatment, mice were subjected to micro-computed tomography to measure primary tumor size. The following day, mice were necropsied to measure primary tumor size, count metastases to the contralateral lung, and obtain lung tissues.

[18] = read-out: HLM/MLM (t ½ min): MLM
[19] = with ritonavir (concentration not stated), + Ritonavir, read-out: HLM/MLM (t ½ min) + Ritonavir: MLM

T2 sequence (P42356 whole entry): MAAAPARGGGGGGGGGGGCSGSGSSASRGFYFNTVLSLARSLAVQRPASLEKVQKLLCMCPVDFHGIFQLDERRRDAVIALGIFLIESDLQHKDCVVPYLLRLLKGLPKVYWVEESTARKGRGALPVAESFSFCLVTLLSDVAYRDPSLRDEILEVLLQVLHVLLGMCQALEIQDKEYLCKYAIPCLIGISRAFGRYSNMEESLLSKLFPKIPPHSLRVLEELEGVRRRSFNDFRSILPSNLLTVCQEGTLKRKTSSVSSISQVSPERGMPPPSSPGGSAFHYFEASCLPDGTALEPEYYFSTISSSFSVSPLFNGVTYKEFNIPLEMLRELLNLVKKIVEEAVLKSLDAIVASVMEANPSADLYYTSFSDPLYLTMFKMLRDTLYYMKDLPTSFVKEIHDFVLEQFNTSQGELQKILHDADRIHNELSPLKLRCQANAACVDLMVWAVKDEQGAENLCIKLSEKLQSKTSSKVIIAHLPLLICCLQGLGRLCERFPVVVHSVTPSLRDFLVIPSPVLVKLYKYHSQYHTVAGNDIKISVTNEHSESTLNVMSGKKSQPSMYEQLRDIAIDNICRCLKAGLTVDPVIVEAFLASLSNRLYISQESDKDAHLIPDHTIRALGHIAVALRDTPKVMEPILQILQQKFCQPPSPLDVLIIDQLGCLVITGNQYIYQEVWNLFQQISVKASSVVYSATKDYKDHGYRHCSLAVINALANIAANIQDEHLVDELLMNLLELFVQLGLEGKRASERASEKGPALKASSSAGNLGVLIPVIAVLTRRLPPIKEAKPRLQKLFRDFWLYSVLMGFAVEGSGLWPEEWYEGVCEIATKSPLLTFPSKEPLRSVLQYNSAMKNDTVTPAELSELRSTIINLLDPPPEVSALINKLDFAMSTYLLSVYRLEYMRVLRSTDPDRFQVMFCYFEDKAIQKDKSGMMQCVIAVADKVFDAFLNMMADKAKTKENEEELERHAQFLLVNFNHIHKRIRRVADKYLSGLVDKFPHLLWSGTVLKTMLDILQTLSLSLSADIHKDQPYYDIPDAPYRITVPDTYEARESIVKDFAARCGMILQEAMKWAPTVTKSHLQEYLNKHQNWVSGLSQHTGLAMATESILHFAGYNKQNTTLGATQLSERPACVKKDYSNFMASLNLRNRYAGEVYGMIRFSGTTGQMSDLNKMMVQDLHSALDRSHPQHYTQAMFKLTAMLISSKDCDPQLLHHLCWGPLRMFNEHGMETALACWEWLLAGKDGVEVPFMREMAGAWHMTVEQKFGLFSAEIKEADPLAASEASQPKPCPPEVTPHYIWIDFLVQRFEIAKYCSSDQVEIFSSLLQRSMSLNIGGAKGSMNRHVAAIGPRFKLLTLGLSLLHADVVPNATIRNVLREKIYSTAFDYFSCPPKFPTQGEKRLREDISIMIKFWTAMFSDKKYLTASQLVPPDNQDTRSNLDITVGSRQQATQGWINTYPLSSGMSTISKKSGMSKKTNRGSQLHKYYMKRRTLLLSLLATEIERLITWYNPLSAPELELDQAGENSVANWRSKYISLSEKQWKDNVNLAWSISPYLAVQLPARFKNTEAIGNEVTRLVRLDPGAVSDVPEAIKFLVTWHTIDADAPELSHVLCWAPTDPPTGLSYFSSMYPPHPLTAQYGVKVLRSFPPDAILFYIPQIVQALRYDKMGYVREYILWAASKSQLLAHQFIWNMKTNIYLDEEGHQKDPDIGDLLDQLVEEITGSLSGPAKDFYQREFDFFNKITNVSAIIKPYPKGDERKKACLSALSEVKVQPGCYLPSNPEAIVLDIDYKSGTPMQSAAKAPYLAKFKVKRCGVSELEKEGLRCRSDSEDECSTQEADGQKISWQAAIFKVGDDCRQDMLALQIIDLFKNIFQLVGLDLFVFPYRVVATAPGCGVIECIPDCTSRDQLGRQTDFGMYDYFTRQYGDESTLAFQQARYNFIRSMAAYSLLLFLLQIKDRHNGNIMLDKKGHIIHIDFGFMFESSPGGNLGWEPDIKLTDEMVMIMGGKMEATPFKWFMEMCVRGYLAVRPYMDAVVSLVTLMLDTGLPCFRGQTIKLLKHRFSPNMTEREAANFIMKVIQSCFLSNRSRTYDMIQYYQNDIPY
T1 sequence (O02810 whole entry): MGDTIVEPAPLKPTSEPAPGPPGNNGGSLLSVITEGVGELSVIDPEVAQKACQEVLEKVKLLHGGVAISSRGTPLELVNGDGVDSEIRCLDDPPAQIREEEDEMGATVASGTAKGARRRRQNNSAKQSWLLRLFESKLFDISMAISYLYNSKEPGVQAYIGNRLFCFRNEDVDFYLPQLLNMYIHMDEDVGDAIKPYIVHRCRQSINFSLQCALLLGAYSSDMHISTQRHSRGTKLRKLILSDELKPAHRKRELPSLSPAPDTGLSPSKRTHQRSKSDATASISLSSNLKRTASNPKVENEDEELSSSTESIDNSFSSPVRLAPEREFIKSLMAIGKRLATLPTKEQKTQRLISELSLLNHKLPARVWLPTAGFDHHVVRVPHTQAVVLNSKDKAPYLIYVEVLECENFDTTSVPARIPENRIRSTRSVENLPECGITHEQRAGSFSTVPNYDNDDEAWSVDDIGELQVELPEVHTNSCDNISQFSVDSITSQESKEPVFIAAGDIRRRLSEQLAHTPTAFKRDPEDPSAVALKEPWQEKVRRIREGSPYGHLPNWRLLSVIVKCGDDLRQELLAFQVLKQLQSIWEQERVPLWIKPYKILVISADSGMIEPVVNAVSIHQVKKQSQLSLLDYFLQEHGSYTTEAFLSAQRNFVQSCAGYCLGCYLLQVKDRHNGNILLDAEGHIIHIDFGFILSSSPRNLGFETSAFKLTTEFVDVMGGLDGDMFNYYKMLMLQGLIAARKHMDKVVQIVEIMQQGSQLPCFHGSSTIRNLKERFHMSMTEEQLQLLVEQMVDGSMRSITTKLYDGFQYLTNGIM

COc1ccc(-c2sc(NC(C)(C)C3CCOCC3)nc2C)cc1S(=O)(=O)Nc1c(C)cccc1F [Compound C]
CC50 [1]: > 100 µM
EC50 [2]: 0.07 µM
IC50 (PI4KIIIbeta): < 0.1 µM
IC50 (PI4KIIIalpha): > 10 µM

Nc1ccn(C[C@@H](CO)OCP(=O)(O)O)c(=O)n1 [PC1, cidofovir, reference compound]
CC50 [1]: > 100 µM
EC50 [2]: 0.31 µM
CC50 [3]: > 150 µM
EC50 [4]: 29.5 µM

COc1ccc(-c2sc(NC(=O)C3CCCC3)nc2C)cc1S(=O)(=O)Nc1ccc(O)cc1 [PI4KIIIbeta-IN-9]
cell proliferation in monolayer culture (lung cancer cell lines [5]): reduced cell proliferation in monolayer culture
colony formation in soft agar and on plastic (lung cancer cell lines [6]): reduced
migration and invasion in Boyden chambers (lung cancer cell lines [7]): reduced
PI4P levels (lung cancer cell lines [8]): decreased PI4P levels in a dose-dependent fashion

COc1ccc(-c2sc(NC(C)(C)c3ccccn3)nc2C)cc1S(=O)(=O)Nc1c(C)cccc1F [Compound S-45]
EC50 [9]: 5.3 µM
EC50 (HCV): 0.0004 µM
CC50 [10]: 73.2 µM
CC50 (cells (EV68 assay)): 38 µM
CC50 [11]: 87.3 µM
CC50 (cells (EV71 assay)): 77 µM
CC50 [12]: 66.2 µM
CC50 (HeLa S3 cells): 52 µM
HLM/MLM (t ½ min) + Ritonavir: HLM [13]: 159 min
half-life [13]: 14 min
EC50 (EV71): 0.0003 µM
EC50 (EV68): 0.002 µM and 0.0029 µM
half-life [14, 18]: 10 min
half-life [14, 19]: 67 min
CC50 [15]: 77 µM
EC50 (HRV): 0.0005 µM
IC50 (PI4KIIIbeta): < 0.1 µM
IC50 (PI4KIIIalpha): > 10 µM
CC50 [3]: > 150 µM
EC50 [4]: 4.7 µM

COc1ccc(-c2sc(NC(C)(C)c3ccccc3)nc2C)cc1S(=O)(=O)NC1CCN(C(C)=O)CC1 [Compound S-42]
EC50 (HCV): 0.0007 µM
CC50 [10]: 100 µM
CC50 [11]: 103 µM
CC50 (cells (EV71 assay)): 100 µM
CC50 [12]: 100 µM
HLM/MLM (t ½ min) + Ritonavir: HLM [13]: 159 min
half-life [13]: 10 min
EC50 (EV71): 0.0003 µM
Papp [16]: 14 ×10⁻⁶ cm/s
EC50 (EV68): 0.0019 µM and 0.0016 µM
half-life [14, 18]: 14 min
half-life [14, 19]: 82 min
EC50 (HRV): 0.0009 µM
IC50 (PI4KIIIbeta): < 0.1 µM
IC50 (PI4KIIIalpha): > 10 µM
CC50 [3]: > 150 µM
EC50 [4]: 8.1 µM

COc1ccc(-c2sc(NC(C)C3CCOCC3)nc2C)cc1S(=O)(=O)Nc1ccccc1Cl (stereo not shown) [Compound B]
survival (EV-71 virus): A dose response was observed in survival
EC50 [9]: 2.1 µM
CC50 [1]: > 100 µM
metastases [17]: No metastases were detectable
sizes of the primary tumors vs vehicle alone [17]: smaller
cell proliferation in monolayer culture (lung cancer cell lines [5]): reduced cell proliferation in monolayer culture
colony formation in soft agar and on plastic (lung cancer cell lines [6]): reduced
EC50 [2]: 0.019 µM
CC50 [15]: 131 µM
IC50 (PI4KIIIbeta): < 0.1 µM
IC50 (PI4KIIIalpha): > 10 µM
migration and invasion in Boyden chambers (lung cancer cell lines [7]): reduced
PI4P levels (lung cancer cell lines [8]): decreased PI4P levels in a dose-dependent fashion

Nc1nc2c(ncn2CCOCP(=O)(O)O)c(=O)[nH]1 [PC2, 9-[2-(phosphono-methoxy)ethyl]guanine, reference compound]
EC50 [9]: 2.8 µM
CC50 [15]: > 150 µM
